According to ChEMBL document CHEMBL3885881, “DrugMatrix”:

Organism: Rattus norvegicus
Experiment: DrugMatrix - Regimen: Daily Repeat
Assay type: toxicity, organism-based, Sprague-Dawley
Design: regimen Daily Repeat, gender Male, age 6-8 weeks
Conditions: in vivo, po, route oral GAVAGE, […]; for ABSOLUTE BASOPHIL / ABSOLUTE EOSINOPHIL / ABSOLUTE LYMPHOCYTE / ABSOLUTE MONOCYTE / ABSOLUTE SEGMENTED NEUTROPHIL / BASOPHIL / EOSINOPHIL / ERYTHROCYTE COUNT / HEMATOCRIT / HEMOGLOBIN / LEUKOCYTE COUNT / LYMPHOCYTE / MEAN CORPUSCULAR HEMOGLOBIN / MEAN CORPUSCULAR HEMOGLOBIN CONCENTRATION / MEAN CORPUSCULAR VOLUME / MONOCYTE / NEUTROPHIL / NUCLEATED RED BLOOD CELLS / PLATELET COUNT: tissue Blood; for ALANINE AMINOTRANSFERASE / ALBUMIN / ALKALINE PHOSPHATASE / ASPARTATE AMINOTRANSFERASE / BLOOD UREA NITROGEN / CARBON DIOXIDE / CHLORIDE / CHOLESTEROL / CREATINE PHOSPHOKINASE / CREATININE / GLUCOSE / LACTATE DEHYDROGENASE / LIPASE / PHOSPHORUS / POTASSIUM / SODIUM / TOTAL BILIRUBIN / TOTAL PROTEIN / URIC ACID: tissue Plasma
[1] = 30 mg/kg, 120 h, dose level Low, time 5 day
[2] = 2500 mg/kg, 72 h, dose level High, time 3 day
[3] = 2500 mg/kg, 120 h, dose level High, time 5 day

In the case of `COC1=CC(=O)C[C@@H](C)[C@]12Oc1c(Cl)c(OC)cc(OC)c1C2=O` [GRISEOFULVIN], the “ABSOLUTE BASOPHIL” value [1] is reported as 0 CELLS/uL, the “ABSOLUTE EOSINOPHIL” value [1] is reported as 0 CELLS/uL and the “ABSOLUTE LYMPHOCYTE” value [1] is reported as 12913.33 CELLS/uL. For the same compound, the “ABSOLUTE MONOCYTE” value [1] was 48.67 CELLS/uL, the “ABSOLUTE SEGMENTED NEUTROPHIL” value [1] was 1938 CELLS/uL and the BASOPHIL [1] was 0%. For the same compound, the EOSINOPHIL [1] was 0%, the “ERYTHROCYTE COUNT” value [1] was 5.4 x10E6/uL and the HEMATOCRIT [1] was 33.57%. For the same compound, the HEMOGLOBIN [1] was 12.93 G/DL, the “LEUKOCYTE COUNT” value [1] was 14.9 x10E3/uL and the LYMPHOCYTE [1] was 86.67%. The “MEAN CORPUSCULAR HEMOGLOBIN” value [1] was 23.93 pg, the “MEAN CORPUSCULAR HEMOGLOBIN CONCENTRATION” value [1] was 38.5 G/DL and the “MEAN CORPUSCULAR VOLUME” value [1] was 62.1 fL. The MONOCYTE [1] was 0.33%, the NEUTROPHIL [1] was 13% and the “NUCLEATED RED BLOOD CELLS” value [1] was 0 /100WBC. For the same compound, the “PLATELET COUNT” value [1] was 1179 x10E3/uL, the “ALANINE AMINOTRANSFERASE” value [1] was 63.67 u/L and the ALBUMIN [1] was 3.87 G/DL. For the same compound, the “ALKALINE PHOSPHATASE” value [1] was 399.67 u/L, the “ASPARTATE AMINOTRANSFERASE” value [1] was 90.33 u/L and the “BLOOD UREA NITROGEN” value [1] was 15.33 mg/dL. For the same compound, the “CARBON DIOXIDE” value [1] was 28.33 mmol/L, the CHLORIDE [1] was 101.67 MEQ/L and the CHOLESTEROL [1] was 66.33 mg/dL. For the same compound, the “CREATINE PHOSPHOKINASE” value [1] was 384.67 u/L, the CREATININE [1] was 0.2 mg/dL and the GLUCOSE [1] was 154 mg/dL. The “LACTATE DEHYDROGENASE” value [1] was 329.33 u/L, the LIPASE [1] was 10 u/L and the PHOSPHORUS [1] was 11.63 mg/dL. The POTASSIUM [1] was 6.32 MEQ/L, the SODIUM [1] was 143 MEQ/L and the “TOTAL BILIRUBIN” value [1] was 0.2 mg/dL. The “TOTAL PROTEIN” value [1] was 5.5 G/DL, the “URIC ACID” value [1] was 1.43 mg/dL and the “ABSOLUTE BASOPHIL” value [2] was 0 CELLS/uL. The “ABSOLUTE EOSINOPHIL” value [2] was 109.33 CELLS/uL, the “ABSOLUTE LYMPHOCYTE” value [2] was 15660.67 CELLS/uL and the “ABSOLUTE MONOCYTE” value [2] was 63 CELLS/uL. For the same compound, the “ABSOLUTE SEGMENTED NEUTROPHIL” value [2] was 2167 CELLS/uL, the BASOPHIL [2] was 0% and the EOSINOPHIL [2] was 0.67%. The “ERYTHROCYTE COUNT” value [2] was 5.22 x10E6/uL, the HEMATOCRIT [2] was 32.37% and the HEMOGLOBIN [2] was 12.83 G/DL. For the same compound, the “LEUKOCYTE COUNT” value [2] was 18 x10E3/uL, the LYMPHOCYTE [2] was 87% and the “MEAN CORPUSCULAR HEMOGLOBIN” value [2] was 24.6 pg. The “MEAN CORPUSCULAR HEMOGLOBIN CONCENTRATION” value [2] was 39.67 G/DL, the “MEAN CORPUSCULAR VOLUME” value [2] was 62.07 fL and the MONOCYTE [2] was 0.33%. The NEUTROPHIL [2] was 12%, the “NUCLEATED RED BLOOD CELLS” value [2] was 0 /100WBC and the “PLATELET COUNT” value [2] was 1162 x10E3/uL. The “ALANINE AMINOTRANSFERASE” value [2] was 57 u/L, the ALBUMIN [2] was 3.87 G/DL and the “ALKALINE PHOSPHATASE” value [2] was 293.67 u/L. For the same compound, the “ASPARTATE AMINOTRANSFERASE” value [2] was 75.67 u/L, the “BLOOD UREA NITROGEN” value [2] was 14.33 mg/dL and the “CARBON DIOXIDE” value [2] was 33.67 mmol/L. The CHLORIDE [2] was 98.33 MEQ/L, the CHOLESTEROL [2] was 107.67 mg/dL and the “CREATINE PHOSPHOKINASE” value [2] was 199 u/L. The CREATININE [2] was 0.17 mg/dL, the GLUCOSE [2] was 144 mg/dL and the “LACTATE DEHYDROGENASE” value [2] was 120 u/L. It also gave an LIPASE [2] of 11.67 u/L, a PHOSPHORUS [2] of 12.17 mg/dL and a POTASSIUM [2] of 6.74 MEQ/L. For the same compound, the SODIUM [2] was 142.47 MEQ/L, the “TOTAL BILIRUBIN” value [2] was 0.2 mg/dL and the “TOTAL PROTEIN” value [2] was 5.83 G/DL. The “URIC ACID” value [2] was 1.47 mg/dL, the “ABSOLUTE BASOPHIL” value [3] was 0 CELLS/uL and the “ABSOLUTE EOSINOPHIL” value [3] was 34 CELLS/uL. The “ABSOLUTE LYMPHOCYTE” value [3] was 11701.67 CELLS/uL, the “ABSOLUTE MONOCYTE” value [3] was 201.67 CELLS/uL and the “ABSOLUTE SEGMENTED NEUTROPHIL” value [3] was 562.67 CELLS/uL. For the same compound, the BASOPHIL [3] was 0%, the EOSINOPHIL [3] was 0.33% and the “ERYTHROCYTE COUNT” value [3] was 5.46 x10E6/uL. For the same compound, the HEMATOCRIT [3] was 34.03%, the HEMOGLOBIN [3] was 13.2 G/DL and the “LEUKOCYTE COUNT” value [3] was 12.5 x10E3/uL. For the same compound, the LYMPHOCYTE [3] was 93.67%, the “MEAN CORPUSCULAR HEMOGLOBIN” value [3] was 24.23 pg and the “MEAN CORPUSCULAR HEMOGLOBIN CONCENTRATION” value [3] was 38.8 G/DL. For the same compound, the “MEAN CORPUSCULAR VOLUME” value [3] was 62.4 fL, the MONOCYTE [3] was 1.67% and the NEUTROPHIL [3] was 4.33%. For the same compound, the “NUCLEATED RED BLOOD CELLS” value [3] was 0.33 /100WBC, the “PLATELET COUNT” value [3] was 1293.67 x10E3/uL and the “ALANINE AMINOTRANSFERASE” value [3] was 49.67 u/L. For the same compound, the ALBUMIN [3] was 4.17 G/DL, the “ALKALINE PHOSPHATASE” value [3] was 316.33 u/L and the “ASPARTATE AMINOTRANSFERASE” value [3] was 89.33 u/L. For the same compound, the “BLOOD UREA NITROGEN” value [3] was 17.67 mg/dL, the “CARBON DIOXIDE” value [3] was 24 mmol/L and the CHLORIDE [3] was 109 MEQ/L. The CHOLESTEROL [3] was 95.67 mg/dL, the “CREATINE PHOSPHOKINASE” value [3] was 362.67 u/L and the CREATININE [3] was 0.28 mg/dL. The GLUCOSE [3] was 152.67 mg/dL, the “LACTATE DEHYDROGENASE” value [3] was 489 u/L and the LIPASE [3] was 11.33 u/L. It also gave a PHOSPHORUS [3] of 11.23 mg/dL, a POTASSIUM [3] of 6.51 MEQ/L and an SODIUM [3] of 150.77 MEQ/L. The “TOTAL BILIRUBIN” value [3] was 0.13 mg/dL, the “TOTAL PROTEIN” value [3] was 6.2 G/DL and the “URIC ACID” value [3] was 1.83 mg/dL.
